Results as given in patent publication US7868204B2, “Inhibitors of histone deacetylase” (MethylGene Inc., priority 2001, dated 2011).
pEC50, pIC50: −log10 of the molar value. Where two headings read alike, the source gives them in different places.

What was measured:
HCT116 cells = assay: MTT assay; type: cell-based; details: Homo sapiens, HCT116 cells, 72 hours
Summary of the method: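 Cells plated one day before dosing, then exposed to compound 72 h at 37 °C, 5% CO2. MTT at 0.5 mg/ml final for 4 h, solubilized in DMF/SDS buffer pH 4.7; OD converted to cell number from a standard growth curve.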

[1] = system: acetylated histone H-4 in T24 human bladder cancer cells; assay: Histone H4 acetylation in whole cells by immunoblots; type: cell-based; details: 16 h
Summary of the method: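 T24 cells were treated with HDAC inhibitors for 16 h; […] total histone protein was resolved by SDS/PAGE and immunoblotted with polyclonal anti-acetylated H4 antibody. ECL detection, with signal quantified by densitometry.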

[2] = molecular target: T1, cloned recombinant human HDAC-1 (Homo sapiens, UniProt Q13547); assay: Human HDAC-1 enzyme inhibition, Assay 1 ([3H]-acetylated histone substrate, scintillation counting); type: biochemical
T1 construct: made in house; host or cells: Baculovirus insect cell expression system
Summary of the method: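 Recombinant human HDAC-1 from baculovirus-infected insect cells, preincubated with compound 30 min at 4° C. before reaction. Released [3H]-acetic acid extracted with ethyl acetate and counted by scintillation. IC50 taken from dose-response curves as concentration giving half-maximal inhibition.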

[3] = T-24, Table 5F, read-out: H4 Ac (T24) EC50
[4] = Table 5F, read-out: Human HDAC-1 IC50
[5] = T-24, Table 5a, read-out: H4Ac (T24) EC50
[6] = Table 5a, read-out: Human HDAC-1 IC50
[7] = T-24, Table 5d, read-out: H4Ac(T24) EC50
[8] = Table 5d, read-out: HDAC-1 IC50
[9] = T-24, Table 5E, read-out: H4 Ac (T24) EC50
[10] = Table 5E, read-out: Human HDAC-1 IC50

T1 sequence (Q13547 whole entry): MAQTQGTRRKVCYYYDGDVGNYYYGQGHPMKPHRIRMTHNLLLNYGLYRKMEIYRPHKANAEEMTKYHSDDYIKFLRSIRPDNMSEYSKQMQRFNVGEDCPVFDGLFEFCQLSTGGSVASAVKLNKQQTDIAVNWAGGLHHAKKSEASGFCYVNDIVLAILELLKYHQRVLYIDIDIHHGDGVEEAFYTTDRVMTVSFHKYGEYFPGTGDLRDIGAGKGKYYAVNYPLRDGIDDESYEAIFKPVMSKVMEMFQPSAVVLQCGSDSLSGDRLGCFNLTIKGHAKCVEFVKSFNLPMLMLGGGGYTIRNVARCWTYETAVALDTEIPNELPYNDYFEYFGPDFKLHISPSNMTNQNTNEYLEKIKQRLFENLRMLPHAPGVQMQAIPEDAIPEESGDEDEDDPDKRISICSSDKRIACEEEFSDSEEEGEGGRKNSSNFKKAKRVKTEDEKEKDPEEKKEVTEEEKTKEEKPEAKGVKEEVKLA

Cc1cc(C)nc(NCc2ccc(C(=O)Nc3ccccc3N)cc2)c1 [Cpd 383, N-(2-Amino-phenyl)-4-[(4,6-dimethyl-pyridin-2-ylamino)-methyl]-benzamide]
pIC50 (HCT116 cells; HCT-116, 72 h, Table 5F): 6.30 | pEC50 [1, 3]: 5.70 | pIC50 [2, 4]: 5.70

COc1ccc(Nc2ccnc(NCc3ccc(C(=O)Nc4ccccc4N)cc3)n2)cc1OC [Cpd 442, N-(2-Amino-phenyl)-4-{[4-(3,4-dimethoxy-phenylamino)-pyrimidin-2-ylamino]-methyl}-benzamide]
pIC50 (HCT116 cells; HCT-116, 72 h, Table 5F): 6.40 | pEC50 [1, 3]: 6.00 | pIC50 [2, 4]: 4.77

CCC1(C)CC(=O)N(Cc2ccc(C(=O)Nc3ccccc3N)cc2)C(=O)C1 [Cpd 180]
pIC50 (HCT116 cells; HCT-116, 72 h, Table 5F): 5.70 | pEC50 [1, 3]: 5.30 | pIC50 [2, 4]: 5.52

C=CCNc1nc(NCc2ccc(C(=O)Nc3ccccc3N)cc2)nc(NC2Cc3ccccc3C2)n1 [Cpd 18]
pIC50 (HCT116 cells; HCT-116, 72 h, Table 5a): 6.22 | pEC50 [1, 5]: 5.52 | pIC50 [2, 6]: 6.10

COc1cccc(NCc2ccc(C(=O)Nc3ccccc3N)cc2)c1 [Cpd 430, N-(2-Amino-phenyl)-4-[(3-methoxy-phenylamino)-methyl]-benzamide]
pIC50 (HCT116 cells; HCT-116, 72 h, Table 5F): 6.15 | pEC50 [1, 3]: 6.00 | pIC50 [2, 4]: 5.30

Nc1ccccc1NC(=O)c1ccc(Cn2c(=O)oc3ccccc3c2=O)cc1 [Cpd 179]
pIC50 (HCT116 cells; HCT-116, 72 h, Table 5F): 6.52 | pEC50 [1, 3]: 6.00 | pIC50 [2, 4]: 6.00

Nc1ccccc1NC(=O)c1ccc(CC2Oc3ccccc3NC2=O)cc1 (stereo not drawn) [compound 270, N-(2-Amino-phenyl)-4-(3-oxo-3,4-dihydro-2H-benzo[1,4]oxazin-2-ylmethyl)-benzamide]
pIC50 (HCT116 cells; HCT-116, 72 h, Table 5F): 6.00 | pEC50 [1, 3]: 5.30 | pIC50 [2, 4]: 5.40

CSc1ccc(NCc2ccc(/C=C/C(=O)Nc3ccccc3N)cc2)cc1 [Cpd 556, N-(2-Amino-phenyl)-3-{4-[(4-methylsulfanyl-phenylamino)-methyl]-phenyl}acrylamide]
pIC50 (HCT116 cells; HCT-116, Table 5d): 6.40 | pEC50 [1, 7]: 4.82 | pIC50 [2, 8]: 6.00

Nc1ccccc1NC(=O)c1ccc(CNc2cccc(F)n2)cc1 [Cpd 349]
pIC50 (HCT116 cells; HCT-116, 72 h, Table 5F): 6.00 | pEC50 [1, 3]: 5.52 | pIC50 [2, 4]: 4.89

Nc1nc(NCCCc2ccccc2)nc(NCc2ccc(C(=O)Nc3ccccc3N)cc2)n1 [Cpd 470]
pIC50 (HCT116 cells; HCT-116, 72 h, Table 5b): 6.15 | pEC50 ([1]; T-24, Table 5b, read-out: H4Ac (T24) EC50): 5.52 | pIC50 ([2]; Table 5b, read-out: Human HDAC-1 IC50): 5.70

Nc1ccccc1NC(=O)c1ccc(CC2C(=O)c3ccccc3C2O)cc1 (stereo not drawn) [Cpd 365, N-(2-Amino-phenyl)-4-(1-hydroxy-3-oxo-indan-2-ylmethyl)-benzamide]
pIC50 (HCT116 cells; HCT-116, 72 h, Table 5F): 6.22 | pEC50 [1, 3]: 5.52 | pIC50 [2, 4]: 5.52

Cc1nn(-c2ccccc2)c(C)c1Cc1ccc(C(=O)Nc2ccccc2N)cc1 [compound 277, N-(2-Amino-phenyl)-4-(3,5-dimethyl-1-phenyl-1H-pyrazol-4-ylmethyl)-benzamide]
pIC50 (HCT116 cells; HCT-116, 72 h, Table 5F): 6.52 | pEC50 [1, 3]: 6.00 | pIC50 [2, 4]: 5.40

Cc1cc(C)nc(NCc2ccc(C(=O)Nc3ccccc3N)cc2)n1 [Cpd 382, N-(2-Amino-phenyl)-4-[(4,6-dimethyl-pyrimidin-2-ylamino)-methyl]-benzamide]
pIC50 (HCT116 cells; HCT-116, 72 h, Table 5F): 6.00 | pEC50 [1, 3]: 5.52 | pIC50 [2, 4]: 5.52

COc1ccc2[nH]c(SCc3ccc(C(=O)Nc4cscc4N)cc3)nc2c1 [Cpd 575, N-(4-Amino-thiophen-3-yl)-4-(5-methoxy-1H-benzoimidazol-2-ylsulfanyl-methyl)-benzamide]
pIC50 (HCT116 cells; HCT-116, 72 h, Table 5F): 6.70 | pEC50 [1, 3]: 6.00 | pIC50 [2, 4]: 5.70

COc1ccc(NC(=O)N(Cc2ccc(C(=O)Nc3ccccc3N)cc2)c2ccc(OC)c(OC)c2)cc1OC [Cpd 371, N-(2-Amino-phenyl)-4-[1,3-bis-(3,4-dimethoxy-phenyl)-ureidomethyl]-benzamide]
pIC50 (HCT116 cells; HCT-116, 72 h, Table 5F): 6.30 | pEC50 [1, 3]: 5.70 | pIC50 [2, 4]: 5.40

COc1cc(N(Cc2ccc(/C=C/C(=O)Nc3ccccc3N)cc2)Cc2cc3ccccc3[nH]2)cc(OC)c1OC [Cpd 499, N-(2-Amino-phenyl)-3-{4-([(1 H-indol-2-ylmethyl)-(3,4,5-trimethoxy-phenyl)-amino]-methyl}-phenyl)-acrylamide]
pIC50 (HCT116 cells; HCT-116, Table 5d): 5.70 | pEC50 [1, 7]: < 4.60 | pIC50 [2, 8]: < 4.60

Cn1c2ccc(NCc3ccc(C(=O)Nc4ccccc4N)cc3)cc2c2nc3ccccc3nc21 [Cpd 462]
pIC50 (HCT116 cells; HCT-116, 72 h, Table 5F): 6.52 | pEC50 [1, 3]: 6.00 | pIC50 [2, 4]: 5.40

COc1ccc(N(Cc2ccc(C(=O)Nc3ccccc3N)cc2)C(=O)Nc2ccc(Oc3ccccc3)cc2)cc1OC [Cpd 374, N-(2-Amino-phenyl)-4-[1-(3,4-dimethoxy-phenyl)-3-(4-phenoxy-phenyl)-ureidomethyl]-benzamide]
pIC50 (HCT116 cells; HCT-116, 72 h, Table 5F): 6.52 | pEC50 [1, 3]: 6.00 | pIC50 [2, 4]: 5.60

Nc1ccccc1NC(=O)c1ccc(CSc2nc3ccc(NCCN4CCOCC4)cc3s2)cc1 [Cpd 128, N-(2-Amino-phenyl)-4-[6-(2-morpholin-4-yl-ethylamino)-benzothiazol-2-ylsulfanylmethyl]-benzamide]
pIC50 (HCT116 cells; HCT-116, 72 h, Table 5E): 6.52 | pEC50 [1, 9]: 5.30 | pIC50 [2, 10]: 6.00

Nc1ccccc1NC(=O)/C=C/c1ccc(NCc2cccc(O)c2)nc1 [Cpd 524, N-(2-Amino-phenyl)-3-[6-(3-hydroxy-benzylamino)-pyridin-3-yl]-acrylamide]
pIC50 (HCT116 cells; HCT-116, Table 5d): 5.70 | pEC50 [1, 7]: 5.52 | pIC50 [2, 8]: 5.52

Nc1ccccc1NC(=O)c1ccc(CSc2ccc3ccccc3n2)cc1 [Cpd 131, N-(2-Amino-phenyl)-4-(quinolin-2-ylsulfanylmethyl)-benzamide]
pIC50 (HCT116 cells; HCT-116, 72 h, Table 5E): 6.05 | pEC50 [1, 9]: 5.70 | pIC50 [2, 10]: 6.52

COc1cc(Cl)cc(NCc2ccc(C(=O)Nc3ccccc3N)cc2)n1 [Cpd 387]
pIC50 (HCT116 cells; HCT-116, 72 h, Table 5F): 6.00 | pEC50 [1, 3]: 6.00 | pIC50 [2, 4]: 5.70

Nc1nc(NCc2ccc(C(=O)Nc3ccccc3N)cc2)nc(NC2Cc3ccccc3C2)n1 [Cpd 8, 4-{[4-Amino-6-(2-indanyl-amino)-[1,3,5]-triazin-2-yl-amino]-methyl}-N-(2-amino-phenyl)-benzamide]
pIC50 (HCT116 cells; HCT-116, 72 h, Table 5a): 6.30 | pEC50 [1, 5]: 6.00 | pIC50 [2, 6]: 6.40

Nc1nc(NCCc2ccccc2F)nc(NCc2ccc(C(=O)Nc3ccccc3N)cc2)n1 [Cpd 24, 4-({4-Amino-6-[2-(2-fluoro-phenyl)-ethylamino]-[1,3,5]triazin-2-ylamino)-methyl)-N-(2-amino-phenyl)-benzamide]
pIC50 (HCT116 cells; HCT-116, 72 h, Table 5a): 6.22 | pEC50 [1, 5]: 6.00 | pIC50 [2, 6]: 5.52

Nc1ccccc1NC(=O)/C=C/c1ccc(NCc2cccnc2)nc1 [Cpd 90, N-(2-aminophenyl)-3-{6-[(pyridin-3-ylmethyl)-amino]-pyridin-3-yl}-acrylamide]
pIC50 (HCT116 cells; HCT-116, 72 h, Table 5c): 5.30 | pEC50 ([1]; T-24, Table 5c, read-out: H4Ac (T24) EC50): 5.30 | pIC50 ([2]; Table 5c, read-out: Human HDAC-1 IC50): 5.00

Cc1nc2ccc(Br)cc2c(=O)n1Cc1ccc(C(=O)Nc2ccccc2N)cc1 [Cpd 342, N-(2-Amino-phenyl)-4-(6-bromo-2-methyl-4-oxo-4H-quinazolin-3-ylmethyl)-benzamide]
pIC50 (HCT116 cells; HCT-116, 72 h, Table 5F): 6.40 | pEC50 [1, 3]: 6.00 | pIC50 [2, 4]: 5.52

Cc1cc(Cl)nc(NCc2ccc(C(=O)Nc3ccccc3N)cc2)n1 [Cpd 418, N-(2-Amino-phenyl)-4-[(4-chloro-6-methyl-pyrimidin-2-ylamino)-methyl]-benzamide]
pIC50 (HCT116 cells; HCT-116, 72 h, Table 5F): 6.05 | pEC50 [1, 3]: 5.70 | pIC50 [2, 4]: 5.52

Nc1ccccc1NC(=O)c1ccc(CNc2cccc(OC(F)(F)F)c2)cc1 [Cpd 423, N-(2-Amino-phenyl)-4-[(3-trifluoromethoxy-phenylamino)-methyl]-benzamide]
pIC50 (HCT116 cells; HCT-116, 72 h, Table 5F): 6.00 | pEC50 [1, 3]: 5.52 | pIC50 [2, 4]: 6.30

Nc1ccccc1NC(=O)c1ccc(CNc2cccc(F)c2)cc1 [Cpd 417, N-(2-Amino-phenyl)-4-[(3-fluoro-phenylamino)-methyl]-benzamide]
pIC50 (HCT116 cells; HCT-116, 72 h, Table 5F): 6.00 | pEC50 [1, 3]: 6.00 | pIC50 [2, 4]: 5.52

COCCn1cnc2c(NCc3ccc(C(=O)Nc4ccccc4N)cc3)nc(Cl)nc21 [Cpd 243]
pIC50 (HCT116 cells; HCT-116, 72 h, Table 5F): 6.10 | pEC50 [1, 3]: 6.00 | pIC50 [2, 4]: 5.70

COc1ccc(CSc2ccc(C(=O)Nc3ccccc3N)cn2)cc1 [Cpd 171]
pIC50 (HCT116 cells; HCT-116, 72 h, Table 5E): 5.52 | pEC50 [1, 9]: 4.60 | pIC50 [2, 10]: 5.10

CC(=O)Nc1sc(Cc2ccc(C(=O)Nc3ccccc3N)cc2)cc1C#N [Cpd 359, 4-(5-Acetylamino-4-cyano-thiophen-2-ylmethyl)-N-(2-amino-phenyl)-benzamide]
pIC50 (HCT116 cells; HCT-116, 72 h, Table 5F): 6.52 | pEC50 [1, 3]: 6.00 | pIC50 [2, 4]: 5.70

Nc1ccccc1NC(=O)c1ccc(CNc2nc(NCc3ccccc3)nc(NC3Cc4ccccc4C3)n2)cc1 [Cpd 25]
pIC50 (HCT116 cells; HCT-116, 72 h, Table 5a): 6.52 | pEC50 [1, 5]: 5.30 | pIC50 [2, 6]: 6.10

Nc1nc(NCc2ccc(C(=O)Nc3ccccc3N)cc2)nc(NCc2ccccn2)n1 [Cpd 12]
pIC50 (HCT116 cells; HCT-116, 72 h, Table 5a): 5.70 | pEC50 [1, 5]: 5.30 | pIC50 [2, 6]: 5.70

Nc1ccccc1NC(=O)c1ccc(CSc2nc3ccc(NCc4cccnc4)cc3s2)cc1 [Cpd 325, N-(2-Amino-phenyl)-4-{6-[(pyridin-3-ylmethyl)-amino]-benzothiazol-2-ylsulfanylmethyl}-benzamide]
pIC50 (HCT116 cells; HCT-116, 72 h, Table 5F): 6.00 | pEC50 [1, 3]: 5.70 | pIC50 [2, 4]: 6.52
